Holding throughout (assay type): in vivo
Experiment [1] deals with ABUTH: Abutilon theophrasti. Put plainly: Post-emergence herbicidal efficacy at 1280 g/ha, ABUTH. To be noted: rated visually after about 3 weeks vs untreated controls, 100% = plants have died, 0% = like control plants. The procedure, abridged: (§1)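 Visual damage rating was made roughly 3 weeks after treatment, relative to untreated plants, on a scale where 0% means no effect and 100% means plants died. Foliar application was at the one-leaf stage as an aqueous WP/EC spray with 0.5% additive at 600 L/ha water, on greenhouse-grown pot plants.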

For experiment [2], the system named is AMARE: Amaranthus retroflexus. Description: Post-emergence herbicidal efficacy at 1280 g/ha, AMARE. To be noted: rated visually after about 3 weeks vs untreated controls, 100% = plants have died, 0% = like control plants. The procedure, abridged:
as §1

Experiment [3] relates to KCHSC: Kochia scoparia. Description: Post-emergence herbicidal efficacy at 1280 g/ha, KCHSC. To be noted: visual rating about 3 weeks after treatment vs untreated controls. The procedure, abridged:
as §1

For experiment [4], the system named is POAAN: Poa annua. Description: Post-emergence herbicidal efficacy at 1280 g/ha, POAAN. To be noted: visual rating about 3 weeks after treatment vs untreated controls. The procedure, abridged: as §1
Experiment [5] deals with STEME: Stellaria media. Description: Post-emergence herbicidal efficacy at 1280 g/ha, STEME. The following applies: visual rating about 3 weeks after treatment vs untreated controls. The procedure, abridged: as §1
The subject of experiment [6] is VERPE: Veronica persica. Put plainly: Post-emergence herbicidal efficacy at 1280 g/ha, VERPE. To be noted: visual rating about 3 weeks after treatment vs untreated controls. The procedure, abridged:
as §1

Experiment [7] deals with ABUTH: Abutilon theophrasti. Description: Pre-emergence herbicide efficacy at 1280 g/ha, ABUTH. To be noted: visual scoring after about 3 weeks vs untreated controls. The procedure, abridged:
(§2)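 Compound applied pre-emergence in WP or EC form to the covering soil over sown seeds, in aqueous spray with 0.5% additive (600 L/ha water). After greenhouse culture for about 3 weeks, damage is rated visually from 0% (as control) to 100% (plants dead).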

For experiment [8], the system named is AMARE: Amaranthus retroflexus. Description: Pre-emergence herbicide efficacy at 1280 g/ha, AMARE. To be noted: visual scoring after about 3 weeks vs untreated controls. The procedure, abridged:
as §2

Experiment [9] deals with DIGSA: Digitaria sanguinalis. Put plainly: Pre-emergence herbicide efficacy at 1280 g/ha, DIGSA. The following applies: visual scoring after about 3 weeks vs untreated controls. The procedure, abridged: as §2
Experiment [10] deals with ECHCG: Echinochloa crus-galli. Description: Pre-emergence herbicide efficacy at 1280 g/ha, ECHCG. To be noted: visual scoring after about 3 weeks vs untreated controls. In outline: as §2
Experiment [11] deals with KCHSC: Kochia scoparia. Put plainly: Pre-emergence herbicide efficacy at 1280 g/ha, KCHSC. To be noted: visual scoring after about 3 weeks vs untreated controls. In outline:
as §2

Experiment [12] relates to MATIN: Matricaria inodora. Description: Pre-emergence herbicide efficacy at 1280 g/ha, MATIN. The following applies: visual scoring after about 3 weeks vs untreated controls. The source says: (§3) Seeds of mono- and dicotyledonous weed plants were placed in plastic pots in sandy loam soil (doubly sown with one species each of mono- or dicotyledonous weed plants per pot) and covered with soil. The compounds of the invention, formulated in the form of wettable powders (WP) or as emulsion concentrates (EC), were then applied to the surface of the covering soil as aqueous suspension or emulsion with addition of 0.5% additive at a water application rate of 600 litres per hectare (converted). After the treatment, the pots were placed in a greenhouse and kept under good growth conditions for the test plants. After about 3 weeks, the efficacy of the preparations was scored visually in comparison with untreated controls as percentages. For example, 100% activity=the plants have died, 0% activity=like control plants. Tables C1 to C12 below show the effects of selected compounds of the general formula (I) according to Table 1 on various harmful plants and at an application rate corresponding to 1280 g/ha, which were obtained by the trial procedure specified above.

In experiment [13] the test system is POAAN: Poa annua. Description: Pre-emergence herbicide efficacy at 1280 g/ha, POAAN. The following applies: visual scoring after about 3 weeks vs untreated controls. In outline:
as §2

The next experiment deals with SETVI: Setaria viridis. Put plainly: Pre-emergence herbicide efficacy at 1280 g/ha, SETVI. To be noted: visual scoring vs untreated controls. In outline:
as §2

For experiment [14], the system named is STEME: Stellaria media. Description: Pre-emergence herbicide efficacy at 1280 g/ha, STEME. To be noted: visual scoring vs untreated controls. In outline: as §2
In experiment [15] the test system is VERPE: Veronica persica. Put plainly: Pre-emergence herbicide efficacy at 1280 g/ha, VERPE. To be noted: visual scoring vs untreated controls.
Text: as §3

Regarding `Fc1cnc(Cc2ccccc2-n2cc(C(F)(F)F)cn2)nc1` [Example 1-129], the “Post-emergence efficacy at 1280 g/ha against ABUTH in %” value in experiment [1] came to 100%. Further, the “Post-emergence efficacy at 1280 g/ha against AMARE in %” value in experiment [2] was 100%. In the experiment with KCHSC: Kochia scoparia [3], the “Post-emergence efficacy against KCHSC” value turned out to be 100%. Besides, in the experiment on POAAN: Poa annua [4], the “Post-emergence efficacy against POAAN” value came out at 100%. Further, the “Post-emergence efficacy against STEME” value with STEME: Stellaria media [5] is 100%. The “Post-emergence efficacy against VERPE” value in the experiment on VERPE: Veronica persica [6] was 90%. Also, in experiment [7], the “Pre-emergence efficacy against ABUTH” value is listed as 100%. The “Pre-emergence efficacy against AMARE” value in experiment [8] came out at 100%. In addition, in [9], the “Pre-emergence efficacy against DIGSA” value worked out at 90%. In addition, in experiment [10], the “Pre-emergence efficacy against ECHCG” value came to 100%. The “Pre-emergence efficacy against KCHSC” value in the experiment on KCHSC: Kochia scoparia [11] is 90%. Also, the “Pre-emergence efficacy against MATIN” value in experiment [12] worked out at 100%. In addition, the “Pre-emergence efficacy against POAAN” value in the experiment with POAAN: Poa annua [13] amounted to 90%. In addition, the “Pre-emergence efficacy against SETVI in %” value with SETVI: Setaria viridis is given as 90%. For the same compound, in the experiment with STEME: Stellaria media [14], the “Pre-emergence efficacy against STEME in %” value is recorded as 100%. The “Pre-emergence efficacy against VERPE in %” value in the experiment on VERPE: Veronica persica [15] turned out to be 90%.

For `Fc1ccc(Cc2ccccc2Oc2ncc(F)cn2)nc1` [Example 1-93], the “Post-emergence efficacy at 1280 g/ha against ABUTH in %” value in experiment [1] amounted to 90%. The “Post-emergence efficacy at 1280 g/ha against AMARE in %” value in [2] is listed as 100%. Also, the “Post-emergence efficacy against KCHSC” value with KCHSC: Kochia scoparia [3] came to 100%. Further, in the experiment on POAAN: Poa annua [4], the “Post-emergence efficacy against POAAN” value was 100%. For the same compound, the “Post-emergence efficacy against VERPE” value with VERPE: Veronica persica [6] is 100%. Moreover, the “Pre-emergence efficacy against ABUTH” value in experiment [7] is 100%. Also, in experiment [8], the “Pre-emergence efficacy against AMARE” value worked out at 100%. Besides, in experiment [9], the “Pre-emergence efficacy against DIGSA” value is given as 100%. In addition, the “Pre-emergence efficacy against ECHCG” value in [10] is given as 100%. Also, the “Pre-emergence efficacy against KCHSC” value with KCHSC: Kochia scoparia [11] is 100%. Further, the “Pre-emergence efficacy against MATIN” value in [12] turned out to be 100%. Also, the “Pre-emergence efficacy against POAAN” value with POAAN: Poa annua [13] is on record as 100%. Also, the “Pre-emergence efficacy against SETVI in %” value in the experiment on SETVI: Setaria viridis stood at 100%. For the same compound, in the experiment on STEME: Stellaria media [14], the “Pre-emergence efficacy against STEME in %” value amounted to 100%. Further, the “Pre-emergence efficacy against VERPE in %” value in the experiment with VERPE: Veronica persica [15] came to 100%.

For the compound `Fc1cnc(Cc2ccccc2Oc2ncc(F)cn2)nc1` [Example 1-89], the “Post-emergence efficacy at 1280 g/ha against ABUTH in %” value in experiment [1] is on record as 90%. Moreover, in experiment [2], the “Post-emergence efficacy at 1280 g/ha against AMARE in %” value was found to be 100%. Also, in the experiment on KCHSC: Kochia scoparia [3], the “Post-emergence efficacy against KCHSC” value stood at 100%. The “Post-emergence efficacy against VERPE” value with VERPE: Veronica persica [6] is on record as 100%. Further, in experiment [7], the “Pre-emergence efficacy against ABUTH” value came to 100%. In addition, the “Pre-emergence efficacy against AMARE” value in experiment [8] turned out to be 100%. Also, the “Pre-emergence efficacy against DIGSA” value in experiment [9] came to 100%. Moreover, in the experiment with KCHSC: Kochia scoparia [11], the “Pre-emergence efficacy against KCHSC” value was 100%. The “Pre-emergence efficacy against MATIN” value in experiment [12] worked out at 100%. Besides, the “Pre-emergence efficacy against POAAN” value with POAAN: Poa annua [13] worked out at 100%. Moreover, the “Pre-emergence efficacy against SETVI in %” value in the experiment on SETVI: Setaria viridis worked out at 90%. Besides, the “Pre-emergence efficacy against STEME in %” value with STEME: Stellaria media [14] stood at 90%. In addition, in the experiment with VERPE: Veronica persica [15], the “Pre-emergence efficacy against VERPE in %” value was 100%.

The record behind these values is patent publication US20250221410A1, “SUBSTITUTED 2-C-AZINES AND SALTS THEREOF, AND USE THEREOF AS HERBICIDAL ACTIVE SUBSTANCES” (BAYER AKTIENGESELLSCHAFT, priority 2022, published 2025).
